Columns and labels:
[1] = Quantum yield measurements; assay type: physicochemical; details: referred to Rhodamine B in EtOH, excitation 510 nm, emission integrated 540-800 nm
Method: Quantum yields were calculated by measuring the integrated emission area of the fluorescent spectra, and referring them to the area measured for Rhodamine B in EtOH after excitation at 510 nm (ΦRho-B=0.70). Quantum yields for the BDM products were then calculated using equation below, where F represents the area of fluorescent emission, n is reflective index of the solvent, and Abs is absorbance at excitation wavelength selected for standards and samples. Emission was integrated from 540 nm to 800 nm.

[2] = Spectroscopic properties of the BDM library (absorbance and emission maxima); assay type: physicochemical

φ (quantum yield) [1]	λmax (ABS) [2]	λmax (EM) [2]	SMILES
0.97	553 nm	564 nm	COc1cccc(/C=C/C2=[N+]3C(=C(CCN)c4cccn4[B-]3(F)F)C(C)=C2)c1 [BDM-186]
0.20	574 nm	605 nm	COc1ccc(/C=C/C2=[N+]3C(=C(CCN)c4cccn4[B-]3(F)F)C(C)=C2)c(O)c1 [BDM-192]
0.03	600 nm	663 nm	COc1ccc(-c2ccc(/C=C/C3=[N+]4C(=C(CCN)c5cccn5[B-]4(F)F)C(C)=C3)o2)cc1Cl [BDM-195]
0.59	559 nm	574 nm	COc1ccccc1/C=C/C1=[N+]2C(=C(CCN)c3cccn3[B-]2(F)F)C(C)=C1 [BDM-198]
0.18	562 nm	574 nm	CC1=CC(/C=C/c2ccc(-c3cncnc3)cc2)=[N+]2C1=C(CCN)c1cccn1[B-]2(F)F [BDM-199]
0.52	559 nm	575 nm	C=CCOc1ccccc1/C=C/C1=[N+]2C(=C(CCN)c3cccn3[B-]2(F)F)C(C)=C1 [BDM-202]
0.24	553 nm	566 nm	CC1=CC(/C=C/c2ccccc2Cl)=[N+]2C1=C(CCN)c1cccn1[B-]2(F)F [BDM-207]
0.27	558 nm	572 nm	CC1=CC(/C=C/c2ccc(C)cc2)=[N+]2C1=C(CCN)c1cccn1[B-]2(F)F [BDM-208]
0.38	555 nm	567 nm	COc1cc(/C=C/C2=[N+]3C(=C(CCN)c4cccn4[B-]3(F)F)C(C)=C2)cc(OC)c1 [BDM-209]
0.37	559 nm	574 nm	CC1=CC(/C=C/c2ccccc2OCc2ccccc2)=[N+]2C1=C(CCN)c1cccn1[B-]2(F)F [BDM-218]
0.24	557 nm	567 nm	COc1cc(Br)cc(/C=C/C2=[N+]3C(=C(CCN)c4cccn4[B-]3(F)F)C(C)=C2)c1OC [BDM-228]
0.17	558 nm	568 nm	CC1=CC(/C=C/c2cccc3c2OCO3)=[N+]2C1=C(CCN)c1cccn1[B-]2(F)F [BDM-231]
0.22	574 nm	594 nm	CC1=CC(/C=C/c2ccc(C)s2)=[N+]2C1=C(CCN)c1cccn1[B-]2(F)F [BDM-236]
0.35	558 nm	572 nm	CC1=CC(/C=C/c2ccc(I)cc2)=[N+]2C1=C(CCN)c1cccn1[B-]2(F)F [BDM-237]
0.28	559 nm	572 nm	COc1ccc(F)cc1/C=C/C1=[N+]2C(=C(CCN)c3cccn3[B-]2(F)F)C(C)=C1 [BDM-239]
0.23	552 nm	565 nm	CC1=CC(/C=C/c2ccccc2OC(F)F)=[N+]2C1=C(CCN)c1cccn1[B-]2(F)F [BDM-240]
0.32	560 nm	576 nm	COc1c(Br)cc(Br)cc1/C=C/C1=[N+]2C(=C(CCN)c3cccn3[B-]2(F)F)C(C)=C1 [BDM-241]
0.87	543 nm	565 nm	CC1=CC(/C=C/c2c(C)cccc2C)=[N+]2C1=C(CCN)c1cccn1[B-]2(F)F [BDM-243]
0.32	555 nm	563 nm	COc1ccc(F)c(/C=C/C2=[N+]3C(=C(CCN)c4cccn4[B-]3(F)F)C(C)=C2)c1 [BDM-245]
0.17	554 nm	566 nm	CC1=CC(/C=C/c2c(Cl)ccc(C)c2F)=[N+]2C1=C(CCN)c1cccn1[B-]2(F)F [BDM-246]
0.54	571 nm	599 nm	COc1cc(OC)c(/C=C/C2=[N+]3C(=C(CCN)c4cccn4[B-]3(F)F)C(C)=C2)cc1Br [BDM-247]
0.24	557 nm	568 nm	CC1=CC(/C=C/c2ccc(C)c(F)c2)=[N+]2C1=C(CCN)c1cccn1[B-]2(F)F [BDM-249]
0.22	556 nm	572 nm	CCc1ccccc1/C=C/C1=[N+]2C(=C(CCN)c3cccn3[B-]2(F)F)C(C)=C1 [BDM-251]
0.08	556 nm	569 nm	CCc1ccc(/C=C/C2=[N+]3C(=C(CCN)c4cccn4[B-]3(F)F)C(C)=C2)cc1[N+](=O)[O-] [BDM-252]

φ (quantum yield) [1]	λmax (ABS) [2]	λmax (EM) [2]	SMILES
0.35	559 nm	573 nm	COc1cc(/C=C/C2=[N+]3C(=C(CCN)c4cccn4[B-]3(F)F)C(C)=C2)cc(Br)c1OC [BDM-259]
0.05	564 nm	582 nm	COc1ccc(/C=C/C2=[N+]3C(=C(CCN)c4cccn4[B-]3(F)F)C(C)=C2)cc1Br [BDM-260]
0.26	559 nm	571 nm	CCCCc1ccc(/C=C/C2=[N+]3C(=C(CCN)c4cccn4[B-]3(F)F)C(C)=C2)cc1 [BDM-263]
0.21	558 nm	573 nm	CC1=CC(/C=C/c2ccc(C)cc2Br)=[N+]2C1=C(CCN)c1cccn1[B-]2(F)F [BDM-267]
0.46	562 nm	577 nm	COc1ccc(/C=C/C2=[N+]3C(=C(CCN)c4cccn4[B-]3(F)F)C(C)=C2)cc1Cl [BDM-274]
0.05	562 nm	–	COc1cc(Cl)cc(/C=C/C2=[N+]3C(=C(CCN)c4cccn4[B-]3(F)F)C(C)=C2)c1O [BDM-275]
0.59	559 nm	574 nm	CC1=CC(/C=C/c2ccc(Oc3ccc(Cl)cc3)cc2)=[N+]2C1=C(CCN)c1cccn1[B-]2(F)F [BDM-277]
0.28	554 nm	567 nm	COc1cccc(/C=C/C2=[N+]3C(=C(CCN)c4cccn4[B-]3(F)F)C(C)=C2)c1Cl [BDM-281]
0.19	558 nm	565 nm	COc1cc(Cl)cc(/C=C/C2=[N+]3C(=C(CCN)c4cccn4[B-]3(F)F)C(C)=C2)c1OC [BDM-282]
0.15	556 nm	567 nm	CC1=CC(/C=C/c2cccc(O)c2Cl)=[N+]2C1=C(CCN)c1cccn1[B-]2(F)F [BDM-283]
0.03	594 nm	622 nm	CC1=CC(/C=C/c2ccc(-c3cccc(Cl)c3)o2)=[N+]2C1=C(CCN)c1cccn1[B-]2(F)F [BDM-284]
0.51	544 nm	561 nm	CC1=CC(/C=C/c2c(C)cccc2Cl)=[N+]2C1=C(CCN)c1cccn1[B-]2(F)F [BDM-285]
0.26	559 nm	570 nm	CC1=CC(/C=C/c2ccc(C)c(Cl)c2)=[N+]2C1=C(CCN)c1cccn1[B-]2(F)F [BDM-289]
0.36	558 nm	574 nm	CC1=CC(/C=C/c2ccc(Oc3cccc(Cl)c3)cc2)=[N+]2C1=C(CCN)c1cccn1[B-]2(F)F [BDM-290]
0.32	559 nm	568 nm	COc1cccc(Oc2ccc(/C=C/C3=[N+]4C(=C(CCN)c5cccn5[B-]4(F)F)C(C)=C3)cc2)c1 [BDM-298]
0.27	555 nm	563 nm	CC1=CC(/C=C/c2ccc(Oc3ccc(Cl)c(Cl)c3)cc2)=[N+]2C1=C(CCN)c1cccn1[B-]2(F)F [BDM-299]
0.44	562 nm	579 nm	CC1=CC(/C=C/c2ccc(Oc3ccc(C)cc3)cc2)=[N+]2C1=C(CCN)c1cccn1[B-]2(F)F [BDM-300]
0.41	563 nm	586 nm	COc1cc2ccccc2c(/C=C/C2=[N+]3C(=C(CCN)c4cccn4[B-]3(F)F)C(C)=C2)c1OC [BDM-301]
0.31	555 nm	566 nm	CC1=CC(/C=C/c2cccc(I)c2)=[N+]2C1=C(CCN)c1cccn1[B-]2(F)F [BDM-303]
0.25	567 nm	587 nm	COc1cc(F)c(/C=C/C2=[N+]3C(=C(CCN)c4cccn4[B-]3(F)F)C(C)=C2)cc1OC [BDM-305]
0.07	564 nm	580 nm	COc1cc(/C=C/C2=[N+]3C(=C(CCN)c4cccn4[B-]3(F)F)C(C)=C2)cc(O)c1OC [BDM-307]
0.19	556 nm	567 nm	CC1=CC(/C=C/c2ccc(Oc3cc(Cl)cc(Cl)c3)cc2)=[N+]2C1=C(CCN)c1cccn1[B-]2(F)F [BDM-308]
0.42	566 nm	600 nm	COc1ccc(/C=C/C2=[N+]3C(=C(CCN)c4cccn4[B-]3(F)F)C(C)=C2)c(C)c1C [BDM-310]
0.21	556 nm	565 nm	CC1=CC(/C=C/c2ccc(F)c(Oc3ccccc3)c2)=[N+]2C1=C(CCN)c1cccn1[B-]2(F)F [BDM-311]

Source: patent publication US9267949B2, “Alkylamino BODIPY dyes as selective fluorescent probes for proteins and mouse embryonic stem cells” (National University of Singapore, priority 2011, dated 2016)
